The METLIN SMRT retention time set (Domingo-Almenara et al. 2019)

Assay: gradient 5% acetonitrile 3 min, to 50% in 2 min, to 85% in 15 min, held 3 min, 100 µL/min
Settings: column: Zorbax Extend-C18 2.1 x 50 mm; eluents: water / acetonitrile, 0.1% formic acid
Outline: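 Values are retention times taken from adduct peaks that software picked and an analyst inspected. The pure standards were run as mixtures of ~100 molecules on HPLC linked to a quadrupole time-of-flight mass spectrometer, in positive and negative ionization mode. A Zorbax Extend-C18 column (2.1 × 50 mm, 1.8 μm) was used at 100 μL/min with water and acetonitrile, each including 0.1% formic acid.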

Row | RP-LC retention time [s] | SMILES
1 | 578 | CCn1nc(C(=O)NCCn2nc(C)cc2C)ccc1=O
2 | 933 | Cn1c(=O)sc2cc(S(=O)(=O)N3CCC(C(=O)N4CCc5ccccc54)CC3)ccc21
3 | 829 | CCOc1cc(=O)n2c(c1C(=O)Nc1ccc(Cl)c(C)c1)CCCC2
4 | 611 | Cc1ccc2oc(C(=O)N3CCC(CCN4CCCCC4)CC3)cc(=O)c2c1
5 | 614 | CN1CCCCCCN(C(=O)c2cc(CN3CCOCC3)on2)[C@H]2CCC[C@H]2C1=O
6 | 591 | Cc1ccc(CNC(=O)N2CC(N(C3CCOCC3)S(C)(=O)=O)C2)cc1
7 | 616 | COc1cccc(CNC(=O)C2CCN(c3cc(N4CCOCC4)ncn3)CC2)c1
8 | 882 | CCOc1ccccc1CNC(=O)C1CCN(C(=O)c2sccc2-n2cccc2)CC1
9 | 831 | COc1ccc(NS(=O)(=O)c2cc3c(s2)CCN(C(=O)C2CCC2)C3)cc1
10 | 617 | Cn1cc(CCN2CCC(C(=O)NCc3ccc(Cl)cc3)CC2)c2cccnc21
11 | 920 | Cc1ccccc1N1C(=O)CN(S(=O)(=O)c2ccccc2)CC1(C)C(=O)NC1CCCC1 (stereo not drawn)
12 | 578 | O=C(C1CCCO1)N1CCC(Cc2nncn2CC2CC2)CC1 (stereo not drawn)
13 | 608 | O=C(Nc1ccccc1C(=O)NCCCN1CCN(C2CCCCC2)CC1)C1=CSCCO1
14 | 835 | CN(C)C(=O)c1csc(S(=O)(=O)N2CCC(C(=O)NC3CCCCCCC3)CC2)c1
15 | 773 | Cc1cccc(CNC(=O)C2CCN(S(=O)(=O)c3cn(C(C)C)cn3)CC2)c1
16 | 980 | O=C(c1ccsc1)N1CCCC1c1nc(CCOCC2CCCC2)no1 (stereo not drawn)
17 | 711 | CC(C)C(=O)NCCc1csc(C2CCCN(C(=O)C3CCC3)C2)n1 (stereo not drawn)

Row | RP-LC retention time [s] | SMILES
18 | 730 | Cc1cc2nc3sc(C(=O)NCCCN4CCN(C)CC4)cc(=O)n3c2cc1C
19 | 755 | CCCC(CCC)C(=O)N1CCC(Cc2nnc(C3CCOCC3)o2)C1 (stereo not drawn)
20 | 678 | O=C1CC(NC(=O)C2(c3ccc(Cl)cc3)CCCC2)CN1 (stereo not drawn)
21 | 845 | CC1=C(c2ccc(F)cc2)S(=O)(=O)N=C1N1CCCN(C(=O)NC2CCCCC2)CC1
22 | 816 | Cc1oc(C2CCN(S(=O)(=O)c3cc(F)ccc3F)CC2)nc1C(=O)N(C)C
23 | 936 | CSc1ccc(CCNC(=O)C2CCCN(C(=O)c3cc(C)cc(C)c3)C2)cc1 (stereo not drawn)
24 | 837 | Cc1nc(-c2cc(S(=O)(=O)N3CCC(C(=O)NCc4ccco4)CC3)c(C)s2)no1
25 | 648 | CCCn1c(C2CCN(C(=O)Nc3ccc(F)cc3)CC2)cc(=O)n2nccc12
26 | 803 | Cc1ccc(NC(=O)N2CCC(OC3CCN(S(C)(=O)=O)CC3)CC2)cc1C
27 | 573 | CC(NC(=O)c1csc(-c2ccc(N3CCCC3)nc2)n1)c1ccccn1 (stereo not drawn)
28 | 847 | CCCNC(=O)c1cn(-c2ccc(-c3nc(C(C)C)no3)cn2)cn1
29 | 682 | CC(C)N(CCCNC(=O)c1cc2sccc2n1C)Cc1ccccc1
30 | 848 | N#Cc1cccc(-c2cn3c(n2)N(C(=O)CC2CCCC2)CCC3)c1
31 | 815 | O=C(NC1CCCCC1)c1ccc(-n2cccn2)nc1
32 | 797 | CCOC(=O)C1CCN(S(=O)(=O)c2cc(-c3c(CC)noc3NC(C)=O)ccc2OC)CC1
33 | 779 | COc1ccccc1NC(=O)C1CCN(S(=O)(=O)c2cc(C(=O)N3CCOCC3)cs2)CC1

Second part, the compound before the results:

Row | SMILES | RP-LC retention time [s]
34 | O=C1COc2ccc(Cl)cc2N1Cc1nc(-c2ccc(F)cc2)no1 | 1070
35 | COc1ccc(CNC(=O)c2cnc3c(c2)c(=O)n(C)c(=O)n3-c2ccc(OC)cc2)cc1 | 841
36 | Cc1cc(C)cc(NC(=O)N(C)Cc2nc3cc(C(=O)N(C)C)ccc3n2C)c1 | 639
37 | Clc1ccc(-c2nnc(-c3cccnc3N3CCC4(CC3)OCCO4)o2)cc1 | 1010
38 | CC(=O)c1ccc(NC(=O)c2cnn(-c3ccc(Br)cc3)c2)cc1 | 948
39 | Cc1cc2cc(CNC(=O)C(=O)c3c[nH]c4ccccc34)ccc2[nH]1 | 878
40 | CCN1c2ccccc2C(=O)NC12CCN(C(=O)Cc1ccc(OC)cc1)CC2 | 805
41 | COCc1noc(CC2CCOC3(CCN(Cc4ccc5c(c4)CCO5)CC3)C2)n1 (stereo not drawn) | 646
42 | CC(C)c1noc(-c2cc(=O)n(CC(=O)Nc3cccc(Cl)c3)c3ccccc23)n1 | 1070
43 | Cc1cccc(-c2noc(Cn3c(=O)n(Cc4ccccc4Cl)c(=O)c4sccc43)n2)c1 | 1150
44 | O=C(Cc1csc2nc(-c3cccc(Br)c3)cn12)Nc1ccc(F)cc1 | 959
45 | COc1ccc(-c2noc(-c3nn(-c4ccc(Cl)cc4)ccc3=O)n2)cc1 | 877
46 | O=C(Nc1ccccc1F)C(=O)c1ccc[nH]1 | 858
47 | Cc1ccc(Nc2c(-c3ccc(Br)cc3)nc3cnccn23)c(C)c1 | 1170
48 | CCc1noc(NC(C)=O)c1-c1ccc(OC)c(S(=O)(=O)Nc2ccc(F)cc2Cl)c1 | 841
49 | Cc1cccc(CNC(=O)c2cc(N(C)C)n3nccc3n2)c1 | 840
50 | O=C(Nc1ccccc1)c1c(O)c2cccnc2n(-c2ccc(F)cc2)c1=O | 1210
51 | O=C(Nc1cc(-c2cccnc2)no1)c1ccc(F)cc1 | 729
52 | COc1ccc2c(c1)C=C(C(=O)NCc1ccccc1)C=CO2 | 940
53 | CC(=O)c1ccc(OC(=O)c2ccc3c(c2)C(=O)N(c2ccccc2)C3=O)cc1 | 751
54 | Cc1oc2ccn(Cc3ccccc3F)c(=O)c2c1C(=O)NCc1cc(F)cc(F)c1 | 827
55 | COC(=O)c1ccc(NC(=O)c2csc(-c3cn(C)c4ncccc34)n2)cc1 | 990
56 | Cc1cc(-c2nnc(-c3ccccc3)o2)c(C)n1CC(=O)NCc1cccc(Cl)c1 | 973
57 | Cc1cccc(-n2c(=O)c3sccc3n(Cc3nc(-c4ccc(C(F)(F)F)cc4)no3)c2=O)c1 | 1120
58 | O=S(=O)(c1cccc(-c2nnc(-c3ccccc3Br)o2)c1)N1CCCCC1 | 1160
59 | COc1ccc2c(c1)C1(CCN(C(=O)c3cccc(F)c3)C1)C(=O)N2 (stereo not drawn) | 717
60 | O=C(C1=CN(c2ccc(C(F)(F)F)cc2)c2cc(F)ccc2S1(=O)=O)N1CCOCC1 | 875
61 | Cc1ccc(C(=O)N2CCN(c3ccc(=O)n(-c4cccc(Cl)c4)n3)CC2)s1 | 891

Row | SMILES | RP-LC retention time [s]
62 | CCc1nc2cccnc2n1CCN1CCN(C(=O)Nc2ccccc2Br)CC1 | 641
63 | COc1cc(Nc2nc3c(s2)CCCC3c2ccc(F)cc2)ccc1-n1cnc(C)c1 (stereo not drawn) | 1010
64 | CCc1noc(NC(C)=O)c1-c1ccc(C)c(S(=O)(=O)Nc2ccc(F)c(Cl)c2)c1 | 875
65 | CN(C)c1cc(C(N)=O)c2ccccc2n1 | 694
66 | O=C(NCc1ccncc1)c1ccc(-c2ccc(N3CCSCC3)nc2)cc1 | 574
67 | Cc1nc2c(ccc3nc(NC(=O)c4ccc5c(c4)OCCO5)sc32)s1 | 858
68 | O=C(Nc1cnc(-c2ccc(Cl)cc2)nc1)c1cncc(Br)c1 | 1070
69 | CCN1C(=O)c2cccnc2Sc2cc(CNC(=O)c3ccc(C#N)cc3)ccc21 | 756
70 | CC(=O)Oc1ccc(Nc2cc(C)nc3nc(-c4cccnc4)nn23)cc1 | 688
71 | Cc1ccc(-c2noc(Cn3ccnc3)n2)cc1 | 624
72 | Cc1ccc(NC(=O)Cn2cnc3c(sc4nc(-c5ccccc5)ccc43)c2=O)c(Cl)c1 | 1120
73 | COc1ccccc1N1CCN([C@H]2CS(=O)(=O)C[C@@H]2S(=O)(=O)c2ccc(F)c(C)c2)CC1 | 864
74 | CCCn1cc(CCNC(=O)Nc2ccc(Br)c(C)c2)c2cccnc21 | 902
75 | Cc1cc(C)c(NC(=O)Cn2cccc2-c2nc(-c3ccc4c(c3)OCO4)no2)c(C)c1 | 1120
76 | COc1cc(Cl)c(NS(=O)(=O)c2cc(-c3cc(C(F)(F)F)[nH]n3)sc2C)c(OC)c1 | 1030
77 | O=C(NCC1COc2ccccc2O1)C(=O)c1c[nH]c2ccccc12 (stereo not drawn) | 920
78 | COc1ccc(-c2nc(C)c3c(n2)N(Cc2ccco2)C(=O)CC3)cc1 | 975
79 | COc1ccccc1CNS(=O)(=O)c1ccccc1-c1nc(-c2ccc(F)cc2)no1 | 1210
80 | CCCCNC(=O)c1ccc(-n2ccnc2SCC(=O)Nc2ccccc2)cc1 | 746
81 | Cc1cnc(-c2ccccc2)n1CCNS(=O)(=O)c1ccc2c(c1)CCC2 | 689
82 | CCn1cc(-c2ccc(Cl)cc2)cc1C(=O)NC(C)c1cccnc1 (stereo not drawn) | 758
83 | COc1cc(OC)c(NC(=O)CSc2nccnc2N2CCSCC2)cc1Cl | 1020
84 | COc1cc(C(c2nnnn2C(C)(C)C)N2CCN(c3ccccn3)CC2)cc(OC)c1OC (stereo not drawn) | 578
85 | C[C@H]1CN(C(=O)c2cc(F)cc(F)c2)C[C@@H]1c1nc(-c2ccncc2)no1 | 781
86 | O=C(CCSc1ccccc1)N1CC(c2nc(-c3cccc(Cl)c3)no2)C1 | 1020
87 | CCCN1CCN(CCCNC(=O)C2=Cc3cc(Br)ccc3OC2)CC1 | 610
88 | O=C(Cc1ccccc1F)NCCc1nc(-c2ccc3c(c2)OCO3)n[nH]1 | 687
